Test system: cats with chronic kidney disease (CKD)
Assay: Exploratory clinical field trial in cats with CKD (Example 3)
Type: in vivo, cat
Set-up: key to IRIS Stage (based on serum creatinine level) / IRIS Stage (based on creatinine level) / IRIS Stage (based on the creatinine level): IRIS CKD stage assigned from serum creatinine (IRIS 2019)
Settings: for Phosphorus: ref 0.8-2.2; for Serum creatinine: ref 0.9-2.3; for Potassium: ref 3.3-5.8; for Hematocrit: ref 28.2-52.7; for UPC: ref <0.33
Experimental: The clinical trial was conducted at three animal clinics. Overall, 9 cats with chronic kidney disease (CKD) were included in the study and treated once daily orally with 1 mg/kg bodyweight velagliflozin for up to 150 days (depending on the time of enrollment).
Diagnosis of CKD was based on two measurements of serum creatinine concentration at least 2 weeks apart from each other (historical value and screening, and value at screening in fasted cats), as recommended by the International Renal Interest Society (IRIS 2019). In order to qualify for enrollment, serum creatinine levels needed to be ≥2.2 mg/dL, but <5.0 mg/dL.
Disease staging throughout the study was performed based on serum creatinine levels in accordance with the IRIS CKD staging (IRIS 2019).
All other cats were treated for >90 days had at least data for two time points under treatment available and were therefore evaluated. Progression of the disease, as well as IRIS staging in this study was based on the most reliable biomarker: serum creatinine.

[1] = case 200-004, Visit 3 (Day 143), 1 mg/kg po once daily
[2] = case 200-004, screening visit (before treatment)
[3] = case 200-005, 1 mg/kg po once daily
[4] = case 200-005, 1 mg/kg po once daily, whole study
[5] = case 200-005, Visit 1 (Day 30), 1 mg/kg po once daily
[6] = case 200-005, Visit 2 (Day 90), 1 mg/kg po once daily
[7] = case 200-005, Visit 3 (Day 128), 1 mg/kg po once daily
[8] = case 200-005, screening visit (before treatment)
[9] = case 200-006, 1 mg/kg po once daily
[10] = case 200-006, 1 mg/kg po once daily, whole study
[11] = case 200-006, Visit 1 (Day 30), 1 mg/kg po once daily
[12] = case 200-006, Visit 2 (Day 90), 1 mg/kg po once daily

N#Cc1ccc([C@@H]2O[C@H](CO)[C@@H](O)[C@H](O)[C@H]2O)cc1Cc1ccc(C2CC2)cc1 [velagliflozin, Velagliflozin]
Owner assessment of the appetite [1]: normal
Owner assessment of the drinking behavior [1]: normal
Systolic blood pressure [1]: 148.7 mmHg
Phosphorus [1]: 1.2 mmol/L
Serum creatinine [1]: 2.6 mg/dL
Potassium [1]: 4.9 mmol/L
Hematocrit [1]: 34.8%
BUN [2]: 46 mg/dL
IRIS Stage (based on serum creatinine level) [2]: 3
Owner assessment - quality of life [2]: very good
Owner assessment of the appetite [2]: normal
Owner assessment of the drinking behavior [2]: normal
Systolic blood pressure [2]: 130.7 mmHg
Phosphorus [2]: 1.2 mmol/L
Serum creatinine [2]: 2.9 mg/dL
Potassium [2]: 4.9 mmol/L
Hematocrit [2]: 33.4%
UPC [2]: 0.1
Quality of life according to the owner [3]: good
adverse events [3]: No adverse event was reported
expected glucosuric effect [3]: confirmed
Serum potassium levels (course) [4]: remained stable
UPC ratio (remained at) [4]: 0.1
appetite and drinking behavior (course) [4]: remained normal
condition (clinical signs and biochemical parameters) [4]: stabilization of the condition
course of BUN [4]: remained stable
course of serum creatinine [4]: decreased
total urine protein [4]: reduced
BUN [5]: 37 mg/dL
IRIS Stage (based on the creatinine level) [5]: 2
Owner assessment - quality of life [5]: very good
Owner assessment of the appetite [5]: normal
Owner assessment of the drinking behavior [5]: normal
Systolic blood pressure [5]: 148.0 mmHg
Phosphorus [5]: 1.0 mmol/L
Serum creatinine [5]: 2.0 mg/dL
Potassium [5]: 4.0 mmol/L
Hematocrit [5]: 45.1%
BUN [6]: 32 mg/dL
IRIS Stage (based on the creatinine level) [6]: 2
Owner assessment - quality of life [6]: good
Owner assessment of the appetite [6]: normal
Owner assessment of the drinking behavior [6]: normal
Systolic blood pressure [6]: 130.0 mmHg
Phosphorus [6]: 1.3 mmol/L
Serum creatinine [6]: 1.9 mg/dL
Potassium [6]: 3.9 mmol/L
Hematocrit [6]: 39.2%
UPC [6]: 0.1
BUN [7]: 37 mg/dL
IRIS Stage (based on the creatinine level) [7]: 2
Owner assessment - quality of life [7]: good
Owner assessment of the appetite [7]: normal
Owner assessment of the drinking behavior [7]: normal
Systolic blood pressure [7]: 123.3 mmHg
Phosphorus [7]: 1.1 mmol/L
Serum creatinine [7]: 1.9 mg/dL
Potassium [7]: 4.0 mmol/L
Hematocrit [7]: 40.4%
BUN [8]: 37 mg/dL
IRIS Stage (based on the creatinine level) [8]: 2
Owner assessment - quality of life [8]: very good
Owner assessment of the appetite [8]: normal
Owner assessment of the drinking behavior [8]: normal
Systolic blood pressure [8]: 139.3 mmHg
Serum creatinine [8]: 2.2 mg/dL
Potassium [8]: 4.9 mmol/L
Hematocrit [8]: 42.3%
UPC [8]: 0.1
adverse events [9]: Three adverse events were reported: diarrhoea, vomitus as well as cystitis
expected glucosuric effect [9]: confirmed
Quality of life according to the owner (course) [10]: remained good
Serum creatinine and BUN (course) [10]: remained stable
Serum potassium levels (course) [10]: remained within the reference range
Total urine protein and UPC [10]: remained within the reference range
appetite (course) [10]: improved to normal
condition (clinical signs and biochemical parameters) [10]: stable condition
drinking behavior (course) (case 200-006, 1 mg/kg po once daily, whole study, worsening potentially due to cystitis): improved to normal but worsened again to excessive
BUN [11]: 41 mg/dL
IRIS Stage (based on the creatinine level) [11]: 2
Owner assessment - quality of life [11]: good
Owner assessment of the appetite [11]: normal
Owner assessment of the drinking behavior [11]: normal
Systolic blood pressure [11]: 139.3 mmHg
Phosphorus [11]: 1.9 mmol/L
Serum creatinine [11]: 2.7 mg/dL
Potassium [11]: 3.9 mmol/L
Hematocrit [11]: 38.1%
BUN [12]: 30 mg/dL
IRIS Stage (based on the creatinine level) [12]: 2
Owner assessment - quality of life [12]: good
Owner assessment of the appetite [12]: normal
Owner assessment of the drinking behavior [12]: excessive
